For one data set, the target named is T1, human TPOR (Homo sapiens, UniProt P40238).
T1 construct: host or cells: BaF3 (murine pro-B cells), stably transfected, G418-selected
T1 sequence (P40238 26-635): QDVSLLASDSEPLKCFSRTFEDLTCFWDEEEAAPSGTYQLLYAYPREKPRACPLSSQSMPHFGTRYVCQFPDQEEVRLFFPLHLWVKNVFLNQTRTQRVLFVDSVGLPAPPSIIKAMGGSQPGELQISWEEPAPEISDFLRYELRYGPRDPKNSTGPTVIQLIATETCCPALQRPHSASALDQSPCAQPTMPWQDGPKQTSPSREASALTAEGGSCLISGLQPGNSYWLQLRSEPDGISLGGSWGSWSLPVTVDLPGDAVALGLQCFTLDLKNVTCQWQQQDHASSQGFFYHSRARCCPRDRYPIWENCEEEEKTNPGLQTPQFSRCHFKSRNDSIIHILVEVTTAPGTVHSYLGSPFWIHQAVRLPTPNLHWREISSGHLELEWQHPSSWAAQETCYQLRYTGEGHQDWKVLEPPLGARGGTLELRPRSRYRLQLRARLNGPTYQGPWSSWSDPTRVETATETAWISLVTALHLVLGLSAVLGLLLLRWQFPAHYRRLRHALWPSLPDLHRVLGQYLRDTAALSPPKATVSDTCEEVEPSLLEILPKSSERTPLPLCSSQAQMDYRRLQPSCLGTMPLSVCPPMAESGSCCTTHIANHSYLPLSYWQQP
Briefly: Proliferation effect on BAF3-TPOR cell (CCK-8). Format: cell-based. The conditions noted are these: rate relative to rhTPO positive control. Summed up: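 BaF3 cells stably expressing dual-site-mutated human TPOR were washed free of IL-3 and plated at 100,000 cells/mL with test solutions of 0.001–30 μM, then incubated 24 h at 37 °C. After a further 24 h with CCK-8, OD450 was read. Proliferation = (S−B)/(P−B) against a rhTPO control, fitted for EC50.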

The nature of data set [1]: Pharmacokinetics assay in Beagle dogs. The class given is in vivo. The conditions noted are these: intragastric, 5 mg/kg (as free acid), 5 mg/kg. How it is done:
The pharmacokinetic behavior of the compounds of the present disclosure was studied and evaluated in Beagle dogs.
12 Healthy adult Beagles dogs, male, were purchased from Suzhou Xishan Drug Research and Development Colo., LTD. License number: SCXK (Suzhou) 2007-0005.
The test compound was diluted with 0.5% sodium carboxymethyl cellulose to 2.5 mg/mL (calculated as the free acid form) of suspension before use.
12 Healthy adult Beagles dogs, male, were divided into 4 groups. After an overnight fast, the dogs were administered intragastrically at a dose of 5.0 mg/kg (calculated as the free acid form), at a volume of 2 mL/kg.
Blood samples (1.2 mL) were taken from vein of forelegs at pre administration and at 0.25, 0.5, 1.0, 1.5, 2.0, 3.0, 5.0, 6.0, 8.0, 12.0, 14.0, 24.0 and 48.0 hours post administration, which were stored in heparinized tubes and centrifuged for 10 minutes at 3,500 rpm. The plasma samples were stored at −20° C. until analysis. The Beagles dogs were fed 2 hours after administration.
50 μL of Beagles dog plasma, obtained at various time points after administration, 20 μL of internal standard solution and 150 μL of methanol was added to result in protein precipitation. Then the mixture was mixed for 1 minute using a vortexer and centrifuged for 5 minutes at 11,000 rpm. 50 μL of the supernatant was analyzed by HPLC-UV.
The compartmental model of pharmacokinetics was fitted for the test compounds and the major pharmacokinetic parameters were calculated in which Cmax and tmax were the actually measured values.

Data set [2] can be described thus: Pharmacokinetics assay in rats. Format: in vivo, SD rats. The conditions noted are these: SD rats, intragastric, 50 mg/Kg (as free acid); 50 mg/kg. In short, it runs like this:
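SD rats, half male and half female, dosed intragastrically with compound suspended at 5 mg/mL (as free acid) in 1% sodium carboxymethyl cellulose; fed 2 h post-dose. Plasma concentrations over time were measured by HPLC-UV. Parameters came from a compartmental fit, with Cmax and tmax as observed values.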

Data set [3] in a line: Hygroscopicity assay, standing 48 hours at 25° C., humidity 79%. The conditions noted are these: 48 hours, 25° C., humidity 79%. The class given is physicochemical. The protocol:
The hygroscopicity test of the compounds of the present disclosure after standing for 48 hours
1. The arid glass weighing bottle with a tap (external diameter is 50 mm, the height is 15 mm) was placed at 25° C.±1° C. suitably in a thermostatic drier (saturated ammonium sulfate solution was laid in the lower part, humidity was 79%) the day before the assay, precise weight was measured as (m1);
2. The above weighing bottle was covered with the compounds of the invention (about 1 g), and the thickness of the compounds were generally 1 mm, precise weight was measured as (m2);
3. The mouth of the weighing bottle was kept open and placed with the tap in the above conditions with constant temperature and humidity for 48 hours;
4. Put the tap back on the bottle, precise weight was measured as (m3)
The degree of hygroscopicity was defined as follows: […]
Deliquesce: turning into liquid by absorbing enough moisture.
High hygroscopicity: the percentage of hygroscopicity weight gain is not less than 15%.
Hygroscopicity: the percentage of hygroscopicity weight gain is less than 15%, but not less than 2%.
Sparing hygroscopicity: the percentage of hygroscopicity weight gain is less than 2%, but not less than 0.2%.
No hygroscopicity or almost no hygroscopicity: the percentage of hygroscopicity weight gain is less than 0.2%.

The values below come from patent US9120762B2, “Salts of bicyclo-substituted pyrazolon azo derivatives, preparation method and use thereof” (Jiangsu Hengrui Medicine Co., Ltd., priority 2009, dated 2015).

`CC1=NN(c2ccc3c(c2)CCCC3)C(=O)/C1=N\Nc1cccc(-c2ccc(C(=O)O)o2)c1O` [Example 10] had an EC50 at human TPOR of 16 nM. In data set [1], the “Area Under Curve AUC” value was 9.76 µg·h/mL, the “Clearance CL/F” value was 10.1 mL/min/kg, the “Half-Life t1/2” value is 8.07 h and the “Plasma Conc. Cmax” value was found to be 810 ng/mL. The “Time to peak Tmax” value in data set [1] amounted to 0.7 h. In data set [2], the “Area Under Curve AUC” value stood at 381 ± 306 µg·h/mL, the “Clearance CL/F” value was 8.23 ± 12.6 mL/min/kg, the “Half-Life t½” value was found to be 12.9 ± 6.32 h and the “Plasma Conc. Cmax” value was found to be 65600 ± 44500 ng/mL. In data set [2], the “Time to peak Tmax” value was found to be 1.63 ± 0.75 h. For the same compound, in data set [3], the “Percentage of weight gain” value worked out at 15.7% and the hygroscopicity result was “High hygroscopicity (the percentage of hygroscopicity weight gain is not less than 15%)”.
